We go through one compound from ChEMBL document CHEMBL1201862, “PubChem BioAssay data set” (2004).

Assay in all cases: NCI-60 cell line screen, 48 h
For experiment [1], the system named is BT-549.
Experiment [2] concerns CAKI-1.
The subject of experiment [3] is DU-145.
For experiment [4], the system named is HL-60.
Experiment [5] deals with HOP-62.
Experiment [6] concerns LOX IMVI.
Experiment [7] concerns NCI-H226.
Experiment [8] has as its system NCI-H23.
The subject of experiment [9] is NCI/ADR-RES.
Experiment [10] relates to OVCAR-3.
Experiment [11] relates to RPMI-8226.
For experiment [12], the system named is RXF 393.
Experiment [13] relates to SF-268.
In experiment [14] the test system is SK-MEL-28.
In experiment [15] the test system is SK-MEL-5.
Experiment [16] concerns SK-OV-3.
Experiment [17] deals with SNB-19.
Experiment [18] has as its system T47D.
Experiment [19] concerns TK-10.
Experiment [20] deals with UO-31.

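Protocol summary: plate cells (96-well), add compound at 5 concentrations, incubate 48 h, interpolate endpoints linearly. GI50: concentration for 50% inhibition of growth.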 Calls of active or inactive are those of the source. No stated cut-off is given here; in the data, active = GI50 up to about 1.1 µM and inactive = higher.

As to `COc1ccccc1Cn1c2c(c3c(C(=O)NCCN(C)C)c(O)ccc31)C(=O)c1ccccc1C2=O`, the GI50 in experiment [1] was 7.13 µM (inactive); in experiment [2] it was 2.04 µM (inactive); in [3], 1.81 µM (inactive); in experiment [4], 1.01 µM (active); in experiment [5], 1.92 µM (inactive); in experiment [6], 1.89 µM (inactive). For the same compound, the GI50 is 10.4 µM (inactive) in experiment [7]; 1.83 µM (inactive) in [8]; 2.02 µM (inactive) in experiment [9]; 1.99 µM (inactive) in [10]; 0.78 µM (active) in [11]; 1.07 µM (active) in experiment [12]. Further, the GI50 in experiment [13] was 1.68 µM (inactive); in [14], 1.71 µM (inactive); in experiment [15], 1.74 µM (inactive); in [16], 6.52 µM (inactive); in experiment [17], 2.03 µM (inactive); in experiment [18], 2.16 µM (inactive). The GI50 in experiment [19] was 1.61 µM (inactive); in experiment [20], 1.75 µM (inactive).
